Results on 28 compounds are retold here after patent US11298363B2, “Triazolobenzazepines as vasopressin V1a receptor antagonists” (RICHTER GEDEON NYRT., priority 2017, dated 2022).

For assay [1], the target named is T1, human vasopressin V1a receptor (Homo sapiens, UniProt P37288). Description: Human vasopressin V1a receptor binding assay. Particulars: 1321N1 cell membranes, [3H]vasopressin; read-out: Ki (nM) on hV1a cell line. The method, boiled down: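 Ki values come from IC50 via Cheng-Prusoff (KD from prior Scatchard), averaged over at least two independent runs. Human V1a membranes were incubated with radioligand 60 minutes at 27° C., bound ligand collected by filtration; (Arg^8)-vasopressin at 1.2×10^−6 M defined non-specific binding.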

Assay [2] has as its target T1, human vasopressin V1a receptor. In words: Functional assay on human vasopressin V1a receptor expressing cell line (intracellular Ca2+ fluorescence). Format: cell-based. The following applies: for IC50: 1321N1 cells, (Arg8)-vasopressin at EC80, read-out: IC50 (nM) on hV1a cell line; for inhibition at 1 µM: read-out: % at 1 μM, printed in the column IC50 (nM) on hV1a cell line.

T1 sequence (P37288 whole entry): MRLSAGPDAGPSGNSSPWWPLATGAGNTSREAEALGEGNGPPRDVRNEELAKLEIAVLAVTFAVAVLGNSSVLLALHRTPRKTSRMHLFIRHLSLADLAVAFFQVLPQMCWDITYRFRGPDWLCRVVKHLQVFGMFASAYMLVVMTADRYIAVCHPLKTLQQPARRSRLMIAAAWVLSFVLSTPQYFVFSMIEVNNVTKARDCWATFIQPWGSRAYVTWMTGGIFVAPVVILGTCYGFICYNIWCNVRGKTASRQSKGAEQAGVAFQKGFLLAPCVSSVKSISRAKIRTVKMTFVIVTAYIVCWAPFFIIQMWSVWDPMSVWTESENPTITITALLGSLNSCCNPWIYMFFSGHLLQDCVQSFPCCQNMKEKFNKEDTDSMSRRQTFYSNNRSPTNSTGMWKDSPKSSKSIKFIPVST

For the compound `Clc1ccc2c(c1)CC1(Cc3nnc(N4CCC(N5CCCCC5)CC4)n3-2)OCCO1` [Example 94, 1′-(1,4′-bipiperidin-1′-yl)-8′-chloro-4′H,6′H-spiro[1,3-dioxolane-2,5′-[1,2,4]triazolo[4,3-a][1]benzazepine]], the Ki in assay [1] was 2 nM. Moreover, the IC50 in assay [2] was 23 nM.

Consider `CC(C)(C)OC(=O)NC1Cc2cc(Cl)ccc2-n2c(nnc2N2CCC(N3CCCCC3)CC2)C1` (centres unmarked) [Example 95, Tert-butyl [1-(1,4′-bipiperidin-1′-yl)-8-chloro-5,6-dihydro-4H-[1,2,4]triazolo[4,3-a][1]benzazepin-5-yl]carbaminate], for which, in assay [1], the Ki turned out to be 547 nM. Further, the inhibition at 1 µM in assay [2] came to 22%.

On to `CN(Cc1ccc(F)cc1)[C@H]1Cc2cc(Cl)ccc2-n2c(nnc2[C@H]2CC[C@H](Oc3ccccn3)CC2)C1` [Example 97, (5S)-8-chloro-N-(4-fluorobenzyl)-N-methyl-1-[trans-4-(pyridin-2-yloxy)cyclohexyl]-5,6-dihydro-4H-[1,2,4]triazolo[4,3-a][1]benzazepin-5-amine], for which the Ki in assay [1] was determined as 122 nM. Besides, the inhibition at 1 µM in assay [2] was 34%.

Consider `C=CC(=O)N[C@H]1Cc2cc(Cl)ccc2-n2c(nnc2[C@H]2CC[C@H](Oc3ccccn3)CC2)C1` [Example 98, N-{(5S)-8-chloro-1-[trans-4-(pyridin-2-yloxy)cyclohexyl]-5,6-dihydro-4H-[1,2,4]triazolo[4,3-a][1]benzazepin-5-yl}prop-2-enamide], for which the Ki in assay [1] turned out to be 2.1 nM. The half-inhibitory concentration (IC50) in assay [2] was 39 nM.

Turning to `O=C1Cc2ccccc2-n2c(nnc2[C@H]2CC[C@H](Oc3ccccn3)CC2)C1` [Example 102, 1-[trans-4-(pyridin-2-yloxy)cyclohexyl]-4H-[1,2,4]triazolo[4,3-a][1]benzazepin-5(6H)-one], in assay [1], the Ki is 5.9 nM. Besides, in assay [2], the half-maximal inhibitory concentration (IC50) was found to be 23 nM.

`CC(C)OC1Cc2cc(Cl)ccc2-n2c(nnc2[C@H]2CC[C@H](Oc3ccccn3)CC2)C1` (stereo partly drawn) [Example 105, 8-chloro-5-(propan-2-yloxy)-1-[trans-4-(pyridin-2-yloxy)cyclohexyl]-5,6-dihydro-4H-[1,2,4]triazolo[4,3-a][1]benzazepine]: the inhibition constant Ki in assay [1] stood at 0.3 nM. Further, in assay [2], the half-maximal inhibitory concentration (IC50) was found to be 1.4 nM.

Regarding `Clc1ccc2c(c1)CC1(Cc3nnc([C@H]4CC[C@H](Oc5ccccn5)CC4)n3-2)OCCCCO1` [Example 106, 8′-chloro-1′-[trans-4-(pyridin-2-yloxy)cyclohexyl]-4°,6′-spiro[1,3-dioxepane-2,5′-[1,2,4]triazolo[4,3-a][1]benzazepine]], the inhibitory constant (Ki) in assay [1] amounted to 0.1 nM. Besides, the half-inhibitory concentration (IC50) in assay [2] came to 1.8 nM.

In the case of `OC1Cc2ccccc2-n2c(nnc2[C@H]2CC[C@H](Oc3ccccn3)CC2)C1` (stereo partly drawn) [Example 107, 1-[trans-4-(pyridin-2-yloxy)cyclohexyl]-5,6-dihydro-4H-[1,2,4]triazolo[4,3-a][1]benzazepin-5-ol], the inhibition constant (Ki) in assay [1] stood at 1 nM. For the same compound, the IC50 in assay [2] came to 12 nM.

`O=C([C@H]1CC[C@H](c2nnc3n2-c2ccc(Cl)cc2CC2(C3)OCCO2)CC1)N1CCOCC1` [Example 108, Trans-4-(8′-chloro-4′H,6′H-spiro[1,3-dioxolane-2,5′-[1,2,4]triazolo[4,3-a][1]benzazepin]-1′-yl)cyclohexyl(morpholin-4-yl)methanone]: the inhibition constant Ki in assay [1] turned out to be 0.2 nM. In addition, in assay [2], the IC50 amounted to 4.9 nM.

Turning to `COC1Cc2ccccc2-n2c(nnc2[C@H]2CC[C@H](Oc3ccccn3)CC2)C1` (stereo partly drawn) [Example 109, 5-methoxy-1-[trans-4-(pyridin-2-yloxy)cyclohexyl]-5,6-dihydro-4H-[1,2,4]triazolo[4,3-a][1]benzazepine], in assay [1], the inhibitory constant (Ki) turned out to be 0.4 nM. For the same compound, the 50% inhibitory concentration (IC50) in assay [2] was found to be 2.7 nM.

With `O=C1Cc2cc(F)ccc2-n2c(nnc2[C@H]2CC[C@H](Oc3ccccn3)CC2)C1` [Example 110, 8-fluoro-1-[trans-4-(pyridin-2-yloxy)cyclohexyl]-4H-[1,2,4]triazolo[4,3-a][1]benzazepin-5(6H)-one], the Ki in assay [1] was 2.1 nM. Moreover, the concentration for half-maximal inhibition (IC50) in assay [2] amounted to 8.3 nM.

`OC1Cc2cc(F)ccc2-n2c(nnc2[C@H]2CC[C@H](Oc3ccccn3)CC2)C1` (stereo partly drawn) [Example 111, 8-fluoro-1-[trans-4-(pyridin-2-yloxy)cyclohexyl]-5,6-dihydro-4H-[1,2,4]triazolo[4,3-a][1]benzazepin-5-ol]: the inhibitory constant (Ki) in assay [1] was found to be 0.3 nM. Further, the IC50 in assay [2] stood at 2.4 nM.

In the case of `CC(C)(C)OC(=O)NC1Cc2cc(Cl)ccc2-n2c(nnc2[C@H]2CC[C@H](N3CCOCC3)CC2)C1` (stereo partly drawn) [Example 112, Tert-butyl {8-chloro-1-[trans-4-(morpholin-4-yl)cyclohexyl]-5,6-dihydro-4H-[1,2,4]triazolo[4,3-a][1]benzazepin-5-yl}carbamate], the inhibitory constant (Ki) in assay [1] stood at 45.4 nM. The IC50 in assay [2] is 213 nM.

For `NC1Cc2cc(Cl)ccc2-n2c(nnc2[C@H]2CC[C@H](N3CCOCC3)CC2)C1` (stereo partly drawn) [Example 113, 8-chloro-1-[trans-4-(morpholin-4-yl)cyclohexyl]-5,6-dihydro-4H-[1,2,4]triazolo[4,3-a][1]benzazepin-5-amine], the Ki in assay [1] turned out to be 21 nM. For the same compound, the concentration for half-maximal inhibition (IC50) in assay [2] was 305 nM.

With `CC(C)NC1Cc2cc(Cl)ccc2-n2c(nnc2[C@H]2CC[C@H](N3CCOCC3)CC2)C1` (some centres unmarked) [Example 114], the Ki in assay [1] was determined as 26.5 nM. The IC50 in assay [2] was 205 nM.

Regarding `CC(C)N1CC[C@]2(CC[C@@H](c3nnc4n3-c3ccc(Cl)cc3CC3(C4)OCCO3)CC2)C1=O` [Example 115], in assay [1], the inhibition constant Ki came to 0.5 nM. Moreover, the IC50 in assay [2] was 0.8 nM.

For `CC(C)N1CC[C@]2(CC[C@@H](c3nnc4n3-c3ccc(Cl)cc3CC(O)C4)CC2)C1=O` (some centres unmarked) [Example 116, (5r,8r)-8-(8-chloro-5-hydroxy-5,6-dihydro-4H-[1,2,4]triazolo[4,3-a][1]benzazepin-1-yl)-2-(propan-2-yl)-2-azaspiro[4,5]decan-1-one], the Ki in assay [1] stood at 0.7 nM. Further, in assay [2], the IC50 was 2.1 nM.

Take `Clc1ccc2c(c1)C[C@H](N1CCCC1)Cc1nnc([C@H]3CC[C@H](Oc4ccccn4)CC3)n1-2` [Example 117, (5S)-8-chloro-1-[trans-4-pyridin-2-loxcyclohexyl]-5-(pyrrolidin-1-yl)-5,6-dihydro-4H-[1,2,4]triazolo[4,3-a][1]benzazepine]: the Ki in assay [1] was determined as 0.9 nM. The IC50 in assay [2] amounted to 4.3 nM.

For the compound `CC(C)(C)C(=O)N[C@H]1Cc2cc(Cl)ccc2-n2c(nnc2[C@H]2CC[C@H](Oc3ccccn3)CC2)C1` [Example 118], the inhibition constant (Ki) in assay [1] was 66 nM. In addition, in assay [2], the concentration for half-maximal inhibition (IC50) stood at 251 nM.

Regarding `O=C(N[C@H]1Cc2cc(Cl)ccc2-n2c(nnc2[C@H]2CC[C@H](Oc3ccccn3)CC2)C1)C1CC1` [Example 119, N-{(5S)-8-chloro-1-[trans-4-(pyridin-2-yloxy)cyclohexyl]-5,6-dihydro-4H-[1,2,4]triazolo[4,3-a][1]benzazepin-5-yl}cyclopropanecarboxamide], the inhibition constant (Ki) in assay [1] is 27 nM. The concentration for half-maximal inhibition (IC50) in assay [2] came out at 111 nM.

As for `CC(C)C(=O)N[C@H]1Cc2cc(Cl)ccc2-n2c(nnc2[C@H]2CC[C@H](Oc3ccccn3)CC2)C1` [Example 120, N-{(5S)-8-chloro-1-[trans-4-(pyridin-2-yloxy)cyclohexyl]-5,6-dihydro-4H-[1,2,4]triazolo[4,3-a][1]benzazepin-5-yl}-2-methylpropanamide], the inhibitory constant (Ki) in assay [1] amounted to 52 nM. Besides, the IC50 in assay [2] stood at 465 nM.

For `O=C(N[C@H]1Cc2cc(Cl)ccc2-n2c(nnc2[C@H]2CC[C@H](Oc3ccccn3)CC2)C1)C1CCC1` [Example 121, N-{(5S)-8-chloro-1-[trans-4-(pyridin-2-yloxy)cyclohexyl]-5,6-dihydro-4H-[1,2,4]triazolo[4,3-a][1]benzazepin-5-yl}cyclobutanecarboxamide], the Ki in assay [1] was 79 nM. In assay [2], the concentration for half-maximal inhibition (IC50) was 442 nM.

On to `Clc1ccc2c(c1)C[C@H](N1CCOCC1)Cc1nnc([C@H]3CC[C@H](Oc4ccccn4)CC3)n1-2` [Example 122, (5S)-8-chloro-5-(morpholin-4-yl)-1-[trans-4-(pyridin-2-yloxy)cyclohexyl]-5,6-dihydro-4H-[1,2,4]triazolo[4,3-a][1]benzazepine], for which the Ki in assay [1] was determined as 3 nM. For the same compound, the concentration for half-maximal inhibition (IC50) in assay [2] is 14 nM.

For the compound `CC(C)(C)C(=O)N[C@@H]1Cc2cc(Cl)ccc2-n2c(nnc2[C@H]2CC[C@H](Oc3ccccn3)CC2)C1` [Example 123, N-{(5R)-8-chloro-1-[trans-4-(pyridin-2-yloxy)cyclohexyl]-5,6-dihydro-4H-[2,4]triazolo[4,3-a][1]benzazepin-5-yl}-2,2-dimethylpropanamide], the inhibitory constant (Ki) in assay [1] was determined as 2.1 nM. In addition, in assay [2], the IC50 worked out at 6.3 nM.

For `CC(C)C(=O)N[C@@H]1Cc2cc(Cl)ccc2-n2c(nnc2[C@H]2CC[C@H](Oc3ccccn3)CC2)C1` [Example 124, N-{(5R)-8-chloro-1-[trans-4-(pyridin-2-yloxy)cyclohexyl]-5,6-dihydro-4H-[1,2,4]triazolo[4,3-a][1]benzazepin-5-yl}-2-methylpropanamide], the Ki in assay [1] is 1.7 nM. Moreover, the IC50 in assay [2] is 5.1 nM.

Consider `O=C(N[C@@H]1Cc2cc(Cl)ccc2-n2c(nnc2[C@H]2CC[C@H](Oc3ccccn3)CC2)C1)C1CCC1` [Example 125, N-{(5R)-8-chloro-1-[trans-4-(pyridin-2-yloxy)cyclohexyl]-5,6-dihydro-4H-[1,2,4]triazolo[4,3-a][1]benzazepin-5-yl}cyclobutanecarboxamide], for which the inhibition constant (Ki) in assay [1] worked out at 0.8 nM. Besides, in assay [2], the half-maximal inhibitory concentration (IC50) was 2.3 nM.

On to `Clc1ccc2c(c1)C[C@H](N1CCCCC1)Cc1nnc([C@H]3CC[C@H](Oc4ccccn4)CC3)n1-2` [Example 127, (5S)-8-chloro-5-(piperidin-1-yl)-1-[trans-4-(pyridin-2-yloxy)cyclohexyl]-5,6-dihydro-4H-[1,2,4]triazolo[4,3-a][1]benzazepine], for which the Ki in assay [1] is 2.8 nM. The IC50 in assay [2] is 17 nM.

For `CCC(C)N[C@H]1Cc2cc(Cl)ccc2-n2c(nnc2[C@H]2CC[C@H](Oc3ccccn3)CC2)C1` (some centres unmarked) [Example 128], the Ki in assay [1] stood at 2 nM. In assay [2], the IC50 worked out at 14 nM.
